Data: patent publication US20230072421A1, “TARGETED RADIOPHARMACEUTICALS FOR THE DIAGNOSIS AND TREATMENT OF PROSTATE CANCER” (Bayer AS, priority 2019, published 2023)

How the values were obtained:
[1] = test system: VCaP cells; assay: Cell proliferation assay (CellTiter-Glo, 5-day exposure), VCaP; format: cell-based; settings: 4000 cells/well, Th-227 labelled at 375 kBq/nmol, mean of 1 to 6 experiments
Method: (§1) Inhibition of cell proliferation of Thorium-227 labeled PMSA SMOL ligands was tested different prostate cancer cell lines, namely 22Rv1, VCaP, C4-2 (all from ATCC, Manassas, Va., USA) and LNCaP (DMSZ, Braunschweig). Cells were seeded using the following conditions in 384 well plates (Corning) in 30 μl of growth media at 4000 cells/well for VCaP cells and 1000 cells/well for 22Rv1, C4-2 and LNCaP cells.
(§2) Cells were cultivated an incubator at 37° C. and 5% C02 over night. […] In sister plates cell viability at treatment start (d=0) was determined using CellTiter-Glo® assay (CTG, Promega, Madison, Wis., USA), by adding 30 μl per well CTG solution, incubation for 10 min and reading of Luminescence in a PheraStarFSX instrument (BMG Labtech). After a 5-day exposure in the presenced of test compounds, cell viability of treated or untreated control cells was determined again using CellTiter-Glo® assay (Promega, Madison, Wis., USA). […] The DRC software is a Biobook Spreadsheet that was developed by Bayer AG and Bayer Business Services on the IDBS E-Workbook Suite platform (IDBS: ID Business Solutions Ltd., Guildford, UK).

[2] = test system: C4-2 cells; assay: Cell proliferation assay (CellTiter-Glo, 5-day exposure), C4-2; format: cell-based; settings: C4-2, 1000 cells/well, Th-227 labelled at 375 kBq/nmol, mean of 1 to 6 experiments
Method: as §1, §2

[3] = test system: 22Rv1 cells; assay: Cell proliferation assay (CellTiter-Glo, 5-day exposure), 22Rv1; format: cell-based; settings: 22Rv1, 1000 cells/well, Th-227 labelled at 375 kBq/nmol, mean of 1 to 6 experiments
Method: as §1, §2

[4] = test system: LNCaP human prostate cancer cells; assay: LNCaP xenograft efficacy study (T/C tumor area); format: in vivo, SCID mice
Method: (§3) SCID mice were randomly assigned to experimental groups, ten animals per group (efficacy) or n=3-5 per time point of biodistribution study. At the initiation of the study, a testosterone pellet was subcutaneously transplanted, the animals were shaved, tattooed and each cage was labeled with the cage number, study number and number of animals per cage.
(§4) LNCaP human prostate cancer cells were cultured as described according to the supplier's protocols. Cells were harvested for transplantation in a subconfluent (70%) state. Animals were injected with 5×10^6 LNCaP cells suspended in 100% Matrigel subcutaneously into the flank of the mice.
Efficacy study: When tumors reached a predetermined size in mice of 35-50 mm^2 animals were randomized into treatment and control groups (n=10 animals/group) and treatment with the defined radioactive dose was started. The i.v. application volume was 100 μl/mice.
Tumor response was assessed by determination of the tumor area (product of the longest diameter and its perpendicular) using a caliper. The animal body weight was monitored as a measure for treatment-related toxicity. Measurement of tumor area and body weight was performed two to three times weekly.
Animals were sacrificed when showing signs of toxicity (>20% body weight loss) or when tumors reached a size of approximately 200 mm^2.
Tumor growth inhibition is presented as T/C ratio (Treatment/Control) calculated with tumor areas when the vehicle control group had to be closed.

[5] = Biodistribution study in LNCaP tumor-bearing mice (Th227 counted in organs); format: in vivo, SCID mice; settings: 1500 kBq/kg
Method: as §3, §4
Biodistribution study: When tumors reached a predetermined size in mice of ˜50 mm^2 animals were randomized into groups (n=3 animals/time point) and the radioactive compound was once applied intravenously. The i.v. application volume was 100 μl/mice.
At the predetermined time point, n=3 animals were sacrificed, the organs removed, weight and measured in a Germanium detector to count the Th227 in the sample.

**Q.** What does the source list for `O=C([O-])CN1CCN(CC(=O)[O-])CCN(CC(=O)NCc2ccc(C(=O)N[C@@H](Cc3ccc4ccccc4n3)C(=O)NCCCC[C@H](NC(=O)N[C@@H](CCC(=O)O)C(=O)O)C(=O)O)nc2)CCN(CC(=O)[O-])CC1.[227Th+4]` [Example 34-B-227Th, {N^6-[3-(quinolin-2-yl)-N-{5-[(2-{4,7,10-tris[(carboxy-kappaO)methyl]-1,4,7,10-tetraazacyclododecan-1-yl-kappa^4N^1,N^4,N^7,N^10}acetamido)methyl]pyridine-2-carbonyl}-L-alanyl]-N^2-{[(1S)-1,3-dicarboxypropyl]carbamoyl}-L-lysinato(4−)}(^227Th)Thorate(1−)]?
**A.** Proliferation assay on cancer cell lines by TTCs Default Pivot #3 IC50 [kBq/mL] VCap 4000cells 375kBq/nmol (mean) [1]: 1.75 kBq/mL; Proliferation assay on cancer cell lines by TTCs Default Pivot #3 IC50 [kBq/mL] C4-2 1000cells 375kBq/nmol (mean) [2]: 0.63 kBq/mL; Proliferation assay on cancer cell lines by TTCs Default Pivot #3 IC50 [kBq/mL] 22Rv1 1000cells 375kBq/nmol (mean) [3]: 0.76 kBq/mL; T/Carea ([4]; Example III, day 64 after start of therapy, single treatment 1.5 MBq/kg): 0.23; T/Carea ([4]; Example IV, day 36 after start of therapy, once 1 MBq/kg): 0.66; Th-227 in Blood ([5]; 0.25 h): 1.78% ID Th-227/g organ; Th-227 in Liver ([5]; 0.25 h): 1.69% ID Th-227/g organ; Th-227 in Spleen ([5]; 0.25 h): 17.32% ID Th-227/g organ; Th-227 in Tumor ([5]; 0.25 h): 6.33% ID Th-227/g organ; Th-227 in bone ([5]; 0.25 h): 1.66% ID Th-227/g organ; Th-227 in brain ([5]; 0.25 h): 0.12% ID Th-227/g organ; Th-227 in kidney ([5]; 0.25 h): 62.53% ID Th-227/g organ; Th-227 in large intestine ([5]; 0.25 h): 0.67% ID Th-227/g organ; Th-227 in lung ([5]; 0.25 h): 4.04% ID Th-227/g organ; Th-227 in muscle ([5]; 0.25 h): 1.02% ID Th-227/g organ; Th-227 in prostate ([5]; 0.25 h): 0.00% ID Th-227/g organ; Th-227 in salivary glands ([5]; 0.25 h): 3.14% ID Th-227/g organ; Th-227 in small intestine ([5]; 0.25 h): 1.36% ID Th-227/g organ; Accumulation in the tumor (in words) [5]: good and stable accumulation in the tumor; Th-227 in Blood ([5]; 1 hr): 0.58% ID Th-227/g organ; Th-227 in Liver ([5]; 1 hr): 0.88% ID Th-227/g organ; Th-227 in Spleen ([5]; 1 hr): 19.69% ID Th-227/g organ; Th-227 in Tumor ([5]; 1 hr): 9.15% ID Th-227/g organ; Th-227 in bone ([5]; 1 hr): 1.27% ID Th-227/g organ; Th-227 in brain ([5]; 1 hr): 0.02% ID Th-227/g organ; Th-227 in kidney ([5]; 1 hr): 69.22% ID Th-227/g organ; Th-227 in large intestine ([5]; 1 hr): 0.45% ID Th-227/g organ; Th-227 in lung ([5]; 1 hr): 2.79% ID Th-227/g organ; Th-227 in muscle ([5]; 1 hr): 0.54% ID Th-227/g organ; Th-227 in prostate ([5]; 1 hr): 0.62% ID Th-227/g organ; Th-227 in salivary glands ([5]; 1 hr): 1.75% ID Th-227/g organ; Th-227 in small intestine ([5]; 1 hr): 0.64% ID Th-227/g organ; Th-227 in Blood ([5]; 4 hr): 0.07% ID Th-227/g organ; Th-227 in Liver ([5]; 4 hr): 0.55% ID Th-227/g organ; Th-227 in Spleen ([5]; 4 hr): 11.57% ID Th-227/g organ; Th-227 in Tumor ([5]; 4 hr): 7.00% ID Th-227/g organ; Th-227 in bone ([5]; 4 hr): 1.44% ID Th-227/g organ; Th-227 in brain ([5]; 4 hr): 0.00% ID Th-227/g organ; Th-227 in kidney ([5]; 4 hr): 65.52% ID Th-227/g organ; Th-227 in large intestine ([5]; 4 hr): 0.79% ID Th-227/g organ; Th-227 in lung ([5]; 4 hr): 1.48% ID Th-227/g organ; Th-227 in muscle ([5]; 4 hr): 0.41% ID Th-227/g organ; Th-227 in prostate ([5]; 4 hr): 4.08% ID Th-227/g organ; Th-227 in salivary glands ([5]; 4 hr): 1.05% ID Th-227/g organ; Th-227 in small intestine ([5]; 4 hr): 1.13% ID Th-227/g organ; Th-227 in Blood ([5]; 24 h): 0.01% ID Th-227/g organ; Th-227 in Liver ([5]; 24 h): 0.23% ID Th-227/g organ; Th-227 in Spleen ([5]; 24 h): 1.21% ID Th-227/g organ; Th-227 in Tumor ([5]; 24 h): 10.56% ID Th-227/g organ; Th-227 in bone ([5]; 24 h): 1.21% ID Th-227/g organ; Th-227 in brain ([5]; 24 h): 0.00% ID Th-227/g organ; Th-227 in kidney ([5]; 24 h): 21.02% ID Th-227/g organ; Th-227 in large intestine ([5]; 24 h): 0.10% ID Th-227/g organ; Th-227 in lung ([5]; 24 h): 0.27% ID Th-227/g organ; Th-227 in muscle ([5]; 24 h): 0.00% ID Th-227/g organ; Th-227 in prostate ([5]; 24 h): 0.00% ID Th-227/g organ; Th-227 in salivary glands ([5]; 24 h): 0.11% ID Th-227/g organ; Th-227 in small intestine ([5]; 24 h): 0.08% ID Th-227/g organ; Th-227 in Blood ([5]; 96 h): 0.00% ID Th-227/g organ; Th-227 in Liver ([5]; 96 h): 0.19% ID Th-227/g organ; Th-227 in Spleen ([5]; 96 h): 0.43% ID Th-227/g organ; Th-227 in Tumor ([5]; 96 h): 9.97% ID Th-227/g organ; Th-227 in bone ([5]; 96 h): 1.08% ID Th-227/g organ; Th-227 in brain ([5]; 96 h): 0.00% ID Th-227/g organ; Th-227 in kidney ([5]; 96 h): 9.71% ID Th-227/g organ; Th-227 in large intestine ([5]; 96 h): 1.44% ID Th-227/g organ; Th-227 in lung ([5]; 96 h): 0.13% ID Th-227/g organ; Th-227 in muscle ([5]; 96 h): 0.00% ID Th-227/g organ; Th-227 in prostate ([5]; 96 h): 0.00% ID Th-227/g organ; Th-227 in salivary glands ([5]; 96 h): 0.10% ID Th-227/g organ; Th-227 in small intestine ([5]; 96 h): 0.25% ID Th-227/g organ
